Laboratory results taken from patent US9938261B2, “Heterocyclic compounds and methods of use thereof” (AMBIT BIOSCIENCES CORPORATION, priority 2011, dated 2018).

How the values were obtained:
FLT3 = molecular target: T1, FLT3 (Homo sapiens, UniProt P36888); assay: Competition binding assay, FLT3 Kd; conditions: competition binding
T1 construct: made in house
T1 sequence (P36888 27-993): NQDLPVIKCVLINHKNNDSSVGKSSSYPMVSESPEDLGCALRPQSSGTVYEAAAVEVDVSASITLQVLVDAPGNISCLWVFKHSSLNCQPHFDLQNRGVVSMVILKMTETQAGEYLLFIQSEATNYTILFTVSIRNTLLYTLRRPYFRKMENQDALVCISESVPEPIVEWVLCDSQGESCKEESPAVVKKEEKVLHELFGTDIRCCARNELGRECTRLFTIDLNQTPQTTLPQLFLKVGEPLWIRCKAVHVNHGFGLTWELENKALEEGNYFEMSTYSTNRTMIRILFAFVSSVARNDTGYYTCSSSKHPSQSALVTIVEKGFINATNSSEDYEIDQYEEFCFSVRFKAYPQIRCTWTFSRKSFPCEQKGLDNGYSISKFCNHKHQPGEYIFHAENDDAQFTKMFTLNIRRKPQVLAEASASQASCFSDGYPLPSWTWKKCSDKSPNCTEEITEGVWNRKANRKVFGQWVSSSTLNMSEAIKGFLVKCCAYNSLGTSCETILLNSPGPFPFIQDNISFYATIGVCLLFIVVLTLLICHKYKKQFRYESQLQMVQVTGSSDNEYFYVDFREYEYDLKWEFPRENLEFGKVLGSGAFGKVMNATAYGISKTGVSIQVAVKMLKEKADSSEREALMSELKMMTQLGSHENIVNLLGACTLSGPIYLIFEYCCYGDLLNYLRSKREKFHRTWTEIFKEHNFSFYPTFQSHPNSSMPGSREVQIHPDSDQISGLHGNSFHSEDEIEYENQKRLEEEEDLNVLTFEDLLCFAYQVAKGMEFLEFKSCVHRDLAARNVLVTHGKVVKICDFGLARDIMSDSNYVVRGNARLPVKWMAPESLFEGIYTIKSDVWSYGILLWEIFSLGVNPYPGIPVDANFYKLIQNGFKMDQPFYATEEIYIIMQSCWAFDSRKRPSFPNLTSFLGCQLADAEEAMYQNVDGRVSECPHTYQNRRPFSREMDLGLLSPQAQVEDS
Summary of the method: (§1)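 Compound displacement of kinase from bead-immobilized ligand is measured by qPCR after 1 h equilibration at room temperature. Kinases are T7 phage fusions or DNA-tagged HEK-293 products.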

PDGFRβ = molecular target: T2, PDGFRβ (Homo sapiens, UniProt P09619); assay: Competition binding assay, PDGFRβ Kd; conditions: competition binding
T2 construct: made in house
Summary of the method: as §1

CSF1R [1] = molecular target: T3, CSF1R (Homo sapiens, UniProt P07333); assay: Competition binding assay, CSF1R Kd; design: made in house; conditions: competition binding
Summary of the method: as §1

CSF1R [2] = molecular target: T3, CSF1R; assay: HEK293 CSF1R phosphorylation MSD assay; assay type: cell-based; design: expressed in transfected cells; host or cells: HEK293; conditions: HEK293 cells, M-CSF stimulated CSF1R phosphorylation, MSD; read-out: HEK293 pCSF1R M-CSF MSD:IC50
Summary of the method: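 Ligand-induced CSF1R autophosphorylation was measured by MSD sandwich assay: CSF1R-FKBP from lysates captured via FK506, anti-phosphotyrosine readout. Cells were exposed to compound for 2 h (9-point, half-log, 0.5% DMSO) before 5 min 50 ng/mL M-CSF. Reported IC50 is the mean of duplicate-plate IC50s relative to DMSO control.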

T3 sequence (P07333 20-972): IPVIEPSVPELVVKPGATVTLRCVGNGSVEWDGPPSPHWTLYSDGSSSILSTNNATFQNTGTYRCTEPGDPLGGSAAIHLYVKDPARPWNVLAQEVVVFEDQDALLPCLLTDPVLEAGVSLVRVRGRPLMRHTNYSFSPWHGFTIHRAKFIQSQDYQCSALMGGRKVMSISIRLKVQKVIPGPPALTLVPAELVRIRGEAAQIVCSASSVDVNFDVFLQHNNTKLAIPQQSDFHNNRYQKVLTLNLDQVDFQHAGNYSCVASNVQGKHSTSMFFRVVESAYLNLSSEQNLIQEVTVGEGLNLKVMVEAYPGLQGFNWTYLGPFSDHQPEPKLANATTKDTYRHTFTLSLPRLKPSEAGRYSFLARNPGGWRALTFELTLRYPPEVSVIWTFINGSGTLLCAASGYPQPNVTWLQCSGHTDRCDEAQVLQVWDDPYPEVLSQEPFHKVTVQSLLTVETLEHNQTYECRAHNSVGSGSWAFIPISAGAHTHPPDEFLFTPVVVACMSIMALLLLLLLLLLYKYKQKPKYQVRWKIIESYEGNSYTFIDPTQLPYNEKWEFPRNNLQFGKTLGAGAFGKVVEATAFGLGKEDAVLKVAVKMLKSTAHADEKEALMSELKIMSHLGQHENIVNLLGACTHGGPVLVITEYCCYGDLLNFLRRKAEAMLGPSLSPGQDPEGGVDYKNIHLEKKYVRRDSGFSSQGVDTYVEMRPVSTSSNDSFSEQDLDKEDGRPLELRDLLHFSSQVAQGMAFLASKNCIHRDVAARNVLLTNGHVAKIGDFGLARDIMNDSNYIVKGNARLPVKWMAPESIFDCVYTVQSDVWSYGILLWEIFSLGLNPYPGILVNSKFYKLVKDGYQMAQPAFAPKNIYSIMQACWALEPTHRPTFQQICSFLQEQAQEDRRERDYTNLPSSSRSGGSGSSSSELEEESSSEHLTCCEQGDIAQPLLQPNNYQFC
T2 sequence (P09619 33-1106): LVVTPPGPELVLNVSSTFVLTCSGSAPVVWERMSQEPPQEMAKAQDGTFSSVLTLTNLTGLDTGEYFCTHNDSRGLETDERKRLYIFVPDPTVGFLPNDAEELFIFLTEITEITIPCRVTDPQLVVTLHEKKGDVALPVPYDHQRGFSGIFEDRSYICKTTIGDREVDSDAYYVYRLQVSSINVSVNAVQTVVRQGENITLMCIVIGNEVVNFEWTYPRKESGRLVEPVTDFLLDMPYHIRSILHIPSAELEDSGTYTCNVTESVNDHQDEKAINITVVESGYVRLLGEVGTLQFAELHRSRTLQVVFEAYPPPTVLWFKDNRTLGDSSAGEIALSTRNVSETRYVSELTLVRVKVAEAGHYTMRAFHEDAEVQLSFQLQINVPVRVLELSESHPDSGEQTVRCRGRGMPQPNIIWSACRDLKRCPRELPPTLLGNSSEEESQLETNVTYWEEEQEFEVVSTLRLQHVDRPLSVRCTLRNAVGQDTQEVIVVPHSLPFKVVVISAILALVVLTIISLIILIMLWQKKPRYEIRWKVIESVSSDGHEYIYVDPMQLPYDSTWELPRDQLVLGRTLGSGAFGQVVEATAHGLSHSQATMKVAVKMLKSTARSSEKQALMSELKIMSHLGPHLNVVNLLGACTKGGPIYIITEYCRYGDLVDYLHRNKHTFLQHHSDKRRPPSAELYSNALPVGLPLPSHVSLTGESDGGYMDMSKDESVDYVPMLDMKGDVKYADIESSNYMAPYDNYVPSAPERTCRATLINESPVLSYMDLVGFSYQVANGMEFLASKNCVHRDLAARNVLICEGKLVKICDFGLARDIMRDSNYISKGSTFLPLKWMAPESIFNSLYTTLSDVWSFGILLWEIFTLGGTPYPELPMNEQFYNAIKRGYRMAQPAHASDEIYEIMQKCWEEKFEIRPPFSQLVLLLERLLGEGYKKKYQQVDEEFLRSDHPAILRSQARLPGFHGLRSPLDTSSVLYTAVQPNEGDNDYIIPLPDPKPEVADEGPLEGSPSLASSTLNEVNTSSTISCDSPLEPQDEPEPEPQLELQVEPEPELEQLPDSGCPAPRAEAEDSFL

| Kd (FLT3) | Kd (PDGFRβ) | Kd (CSF1R [1]) | IC50 (CSF1R [2]) | Compound |
| --- | --- | --- | --- | --- |
| 1000 to 5000 nM | 50 to 500 nM | 5 to 20 nM | 50 to 200 nM | O[C@@H]1CCCC[C@H]1Nc1nc2ccc(Cc3cnc4cnccn34)cc2s1 [Example 125, (1R,2R)-2-((6-(imidazo[1,2-a]pyrazin-3-ylmethyl)benzo[d]thiazol-2-yl)amino)cyclohexanol] |
| 200 to 1000 nM | ≤ 50 nM | 5 to 20 nM | ≤ 50 nM | O[C@@H]1[C@H](O)CCC[C@H]1Nc1nc2ccc(Cc3cnc4cc(-n5cccn5)ccn34)cc2s1 [Example 229, (1R,2S,3R)-3-((6-((7-(1H-pyrazol-1-yl)imidazo[1,2-a]pyridin-3-yl)methyl)benzo[d]thiazol-2-yl)amino)cyclohexane-1,2-diol] |
| 200 to 1000 nM | ≤ 50 nM | 5 to 20 nM | 50 to 200 nM | O[C@@H]1[C@H](O)CCC[C@H]1Nc1nc2ccc(Cn3cnc4cc(-n5cncn5)cnc43)cc2s1 [Example 234, (1R,2S,3R)-3-((6-((6-(1H-1,2,4-Triazol-1-yl)-3H-imidazo[4,5-b]pyridin-3-yl)methyl)benzo[d]thiazol-2-yl)amino)cyclohexane-1,2-diol] |
| 1000 to 5000 nM | 50 to 500 nM | ≤ 5 nM | ≤ 50 nM | O[C@@H]1CCCC[C@H]1Nc1nc2ccc(Cc3cnc4cc(-n5cccn5)ccn34)cc2s1 [Example 167, (1R,2R)-2-((6-((7-(1H-pyrazol-1-yl)imidazo[1,2-a]pyridin-3-yl)methyl)benzo[d]thiazol-2-yl)amino)cyclohexanol] |
| 1000 to 5000 nM | 50 to 500 nM | > 50 nM | 50 to 200 nM | CC(O)c1cnc2c(c1)ncn2Cc1ccc2nc(N[C@@H]3CCCC[C@H]3O)sc2c1 (stereo partly drawn) [Example 115, (1R,2R)-2-((6-((6-((R,S)-1-hydroxyethyl)-3H-imidazo[4,5-b]pyridin-3-yl)methyl)benzo[d]thiazol-2-yl)amino)cyclohexanol] |
| 200 to 1000 nM | ≤ 50 nM | ≤ 5 nM | ≤ 50 nM | O[C@@H]1CCCC[C@H]1Nc1nc2ccc(Cn3cnc4cc(-n5ccnc5)ccc43)cc2s1 [Example 226, (1R,2R)-2-((6-((5-(1H-imidazol-1-yl)-1H-benzo[d]imidazol-1-yl)methyl)benzo[d]thiazol-2-yl)amino)cyclohexanol] |
| 200 to 1000 nM | ≤ 50 nM | ≤ 5 nM | ≤ 50 nM | Oc1ccc2c(c1)ncn2Cc1ccc2nc(N[C@@H]3CCCC[C@H]3O)sc2c1 [Example 147, 1-((2-(((1R,2R)-2-hydroxycyclohexyl)amino)benzo[d]thiazol-6-yl)methyl)-1H-benzo[d]imidazol-5-ol] |
| 1000 to 5000 nM | 500 to 2000 nM | 5 to 20 nM | 200 to 500 nM | CNC(=O)c1ccc2ncc(Cc3ccc4nc(N[C@@H]5CCCC[C@H]5O)sc4c3)n2n1 [Example 143, 3-((2-(((1R,2R)-2-hydroxycyclohexyl)amino)benzo[d]thiazol-6-yl)methyl)-N-methylimidazo[1,2-b]pyridazine-6-carboxamide] |
| 1000 to 5000 nM | 50 to 500 nM | 5 to 20 nM | ≤ 50 nM | O[C@@H]1[C@H](O)CCC[C@H]1Nc1nc2ccc(Cc3cnc4cc(-n5nccn5)ccn34)cc2s1 [Example 231, (1R,2S,3R)-3-((6-((7-(2H-1,2,3-triazol-2-yl)imidazo[1,2-a]pyridin-3-yl)methyl)benzo[d]thiazol-2-yl)amino)cyclohexane-1,2-diol] |
| 1000 to 5000 nM | 50 to 500 nM | 5 to 20 nM | ≤ 50 nM | COCCOc1ccn2c(Cc3ccc4nc(N[C@@H]5CCCC[C@H]5O)sc4c3)cnc2c1 [Example 153, (1R,2R)-2-((6-((7-(2-methoxyethoxy)imidazo[1,2-a]pyridin-3-yl)methyl)benzo[d]thiazol-2-yl)amino)cyclohexanol] |
| > 5000 nM | 50 to 500 nM | 5 to 20 nM | > 500 nM | N#Cc1ccn2c(Cc3ccc4nc(N[C@@H]5CCCC[C@H]5O)sc4c3)cnc2c1 [Example 117, 3-((2-(((1R,2R)-2-hydroxycyclohexyl)amino)benzo[d]thiazol-6-yl)methyl)imidazo[1,2-a]pyridine-7-carbonitrile] |
| 200 to 1000 nM | 50 to 500 nM | ≤ 5 nM | ≤ 50 nM | OCCOc1ccc2c(c1)ncn2Cc1ccc2nc(N[C@@H]3CCCC[C@H]3O)sc2c1 [Example 172, (1R,2R)-2-((6-((5-(2-hydroxyethoxy)-1H-benzo[d]imidazol-1-yl)methyl)benzo[d]thiazol-2-yl)amino)cyclohexanol] |
| 1000 to 5000 nM | 50 to 500 nM | 5 to 20 nM | ≤ 50 nM | O[C@@H]1CCCC[C@H]1Nc1nc2ccc(Cn3cnc4cc(-n5cncn5)ccc43)cc2s1 [Example 161, (1R,2R)-2-((6-((5-(1H-1,2,4-triazol-1-yl)-1H-benzo[d]imidazol-1-yl)methyl)benzo[d]thiazol-2-yl)amino)cyclohexanol] |

The next lines start with the compound.

| Compound | Kd (FLT3) | Kd (PDGFRβ) | Kd (CSF1R [1]) | IC50 (CSF1R [2]) |
| --- | --- | --- | --- | --- |
| COc1nc2c(cc1C#N)ncn2Cc1ccc2nc(N[C@@H]3CCCC[C@H]3O)sc2c1 [Example 126, 3-((2-(((1R,2R)-2-hydroxycyclohexyl)amino)benzo[d]thiazol-6-yl)methyl)-5-methoxy-3H-imidazo[4,5-b]pyridine-6-carbonitrile] | 200 to 1000 nM | 50 to 500 nM | 5 to 20 nM | ≤ 50 nM |
| O[C@@H]1CCCC[C@H]1Nc1nc2c(Br)cc(Cn3cnc4cccnc43)cc2s1 [Example 166, (1R,2R)-2-((6-((3H-imidazo[4,5-b]pyridin-3-yl)methyl)-4-bromobenzo[d]thiazol-2-yl)amino)cyclohexanol] | 200 to 1000 nM | > 2000 nM | 5 to 20 nM | > 500 nM |
| CCOc1ccc2c(c1)ncn2Cc1ccc2nc(N[C@@H]3CCCC[C@H]3O)sc2c1 [Example 138, (1R,2R)-2-((6-((5-ethoxy-1H-benzo[d]imidazol-1-yl)methyl)benzo[d]thiazol-2-yl)amino)cyclohexanol] | 200 to 1000 nM | ≤ 50 nM | ≤ 5 nM | ≤ 50 nM |
| COc1ccc2c(c1)ncn2Cc1ccc2nc(N[C@@H]3CCCC[C@H]3O)oc2c1 [Example 151, (1R,2R)-2-((6-((5-methoxy-1H-benzo[d]imidazol-1-yl)methyl)benzo[d]oxazol-2-yl)amino)cyclohexanol] | 200 to 1000 nM | ≤ 50 nM | 5 to 20 nM | ≤ 50 nM |
| O[C@@H]1CCCC[C@H]1Nc1nc2ccc(Cn3cnc4cc(F)cc(F)c43)cc2s1 [Example 148, (1R,2R)-2-((6-((5,7-difluoro-1H-benzo[d]imidazol-1-yl)methyl)benzo[d]thiazol-2-yl)amino)cyclohexanol] | 1000 to 5000 nM | 50 to 500 nM | ≤ 5 nM | 50 to 200 nM |
| Fc1cnc2c(c1)ncn2Cc1ccc2nc(N[C@H]3C=CCCC3)sc2c1 [Example 176, (R)—N-(cyclohex-2-en-1-yl)-6-((6-fluoro-3H-imidazo[4,5-b]pyridin-3-yl)methyl)benzo[d]thiazol-2-amine] | 1000 to 5000 nM | 50 to 500 nM | 5 to 20 nM | 200 to 500 nM |
| O[C@@H]1CCCC[C@H]1Nc1nc2ccc(Cn3cnc4cc(F)cnc43)cc2o1 [Example 132, (1R,2R)-2-((6-((6-fluoro-3H-imidazo[4,5-b]pyridin-3-yl)methyl)benzo[d]oxazol-2-yl)amino)cyclohexanol] | ≤ 200 nM | ≤ 50 nM | ≤ 5 nM | 50 to 200 nM |
| Cc1cc2ncn(Cc3ccc4nc(N[C@@H]5CCCC[C@H]5O)sc4c3)c2cc1C [Example 119, (1R,2R)-2-((6-((5,6-dimethyl-1H-benzo[d]imidazol-1-yl)methyl)benzo[d]thiazol-2-yl)amino)cyclohexanol] | 200 to 1000 nM | ≤ 50 nM | 5 to 20 nM | 50 to 200 nM |
| COc1ccc2ncn(Cc3ccc4nc(N[C@@H]5CCCC[C@H]5O)oc4c3)c2c1 [Example 152, (1R,2R)-2-((6-((6-methoxy-1H-benzo[d]imidazol-1-yl)methyl)benzo[d]oxazol-2-yl)amino)cyclohexanol] | ≤ 200 nM | 50 to 500 nM | 5 to 20 nM | ≤ 50 nM |
